From PMC7915588, “Polyphyllin D Shows Anticancer Effect through a Selective Inhibition of Src Homology Region 2-Containing Protein Tyrosine Phosphatase-2 (SHP2)” (Molecules, 2021)

How the values were obtained:
SHP2 [1] = molecular target: T1, SHP2 (Homo sapiens, UniProt Q06124)
T1 construct: gene PTPN11
T1 sequence (Q06124 1-526): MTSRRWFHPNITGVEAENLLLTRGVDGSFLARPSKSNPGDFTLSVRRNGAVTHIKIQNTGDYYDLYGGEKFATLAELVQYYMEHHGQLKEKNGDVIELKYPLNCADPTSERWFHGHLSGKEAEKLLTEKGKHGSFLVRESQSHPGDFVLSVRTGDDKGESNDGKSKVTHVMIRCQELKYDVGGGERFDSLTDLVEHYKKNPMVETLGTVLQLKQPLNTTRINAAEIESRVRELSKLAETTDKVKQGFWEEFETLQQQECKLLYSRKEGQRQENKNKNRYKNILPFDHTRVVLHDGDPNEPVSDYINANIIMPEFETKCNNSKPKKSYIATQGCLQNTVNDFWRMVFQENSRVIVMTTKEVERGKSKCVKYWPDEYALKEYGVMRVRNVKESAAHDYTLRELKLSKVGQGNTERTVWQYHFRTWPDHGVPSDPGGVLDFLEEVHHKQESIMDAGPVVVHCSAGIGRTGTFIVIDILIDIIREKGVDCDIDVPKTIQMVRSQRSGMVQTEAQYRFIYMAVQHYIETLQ

SHP2 [2] = molecular target: T1, SHP2; assay: DiFMUP fluorogenic phosphatase assay at […]; type: biochemical

| Structure (SMILES) | Km (SHP2 [1]) [µM] | DiFMUP fluorogenic phosphatase assay at 20 μM (SHP2 [2]) |
| --- | --- | --- |
| Cc1cc(=O)oc2c(F)c(OP(=O)(O)O)c(F)cc12 [DiFMUP] | 70 |  |
| CC1(C)CC[C@]2(C(=O)O)CC[C@]3(C)C(=CC[C@@H]4[C@@]5(C)CC[C@H](O)C(C)(C)[C@@H]5CC[C@]43C)[C@@H]2C1 [oleanolic acid] |  | Echinocystic and oleanolic acids selectively inhibited SHP1 and SHP2 over the other PTPs tested |
